Experimental data from US20250275938A1, “COMPOSITIONS AND METHODS FOR TREATMENT OF CANCER” (SCIROSBIO (FZC), priority 2022, published 2025).

What was measured:
[1] = system: intracellular ROS in U87MG cells; experiment: ROS activity by DCF-DA, U87MG; format: cell-based, human; conditions: IC50 concentrations, vs control
Procedure: (§1) Determination of ROS activity by DCF-DA. U87MG and C6 cells were seeded at 5×10^3 cells/well in 96 well plates. […] After the treatment period, monolayer cells were stained with DCF-DA stain, and the absorbance was read at 530 nm spectrophotometrically (Molecular Devices Spectra-Max M5, USA). This method is commonly used in ROS investigations and is based on the application of H2DCFDA (acetylated form of DCF), which is consecutively deacetylated inside the cells by intracellular esterase.

[2] = system: C6 glioma cells; experiment: AO/EtBr dual staining for apoptosis, C6; format: cell-based, rat; conditions: respective IC50 concentrations
From the text: AO/EtBr are fluorescent nuclear stains, which distinguish between live and dead cells based on their membrane integrity. AO intercalates in the DNA of live cells imparting green shade to the nucleus as an indica-tor of viability. In the case of the dead cell, EtBr intercalates along with AO, resulting in an orange appearance, with an increased orange appearance corresponding to a concomitant increase in the number of dead cells and vice versa.
After the treatment period, monolayer cells were stained with AO/EtBr stain (1 mg/ml) and were visualized immediately under a fluorescence microscope (Axiovert, Carl Zeiss) at 20× magnification.

[3] = system: U87MG human glioma cell line; experiment: MTT cell viability assay, U87MG; format: cell-based; conditions: for IC50: Homo sapiens, U-87 MG, individual drug, mean ± SD, no unit in table, test concentrations given in μM, read-out: Inhibitory Concentration at 50% (IC50) U87MG Cells; for IC50 / cell viability / anti-proliferative effect (MTT), in words: 24 hours; for cell viability / anti-proliferative effect (MTT), in words: U87MG
Procedure: (§2) Cell lines and culture conditions. A human glioma cell line, U87MG, a rat glioma cell line, C6, and normal HEK293T (Human Embryonic Kidney) cells were obtained from National Centre for Cell Science (NCCS), Pune, India. The cells were sub-cultured in Dulbecco's Modified Eagle's Medium (DMEM) supplemented with 10% FBS at 5% CO2 and 37° C. At 85% confluence, the cells were harvested using 0.25% trypsin and seeded in 25 cm^2 flasks, 96 well, and 6-well plates, according to the experiment being performed. The cells were allowed to attach 70% to the surface prior to treatment. A stock solution of all the drugs (10 mg/ml) was made in a vehicle and diluted to the required concentrations. Suspensions were aspirated 10 times before treatment. Cells treated with vehicle control were used as a control.
(§3) Cell viability assay. U87MG and C6 cells (5×10^3 cells/ml) were seeded in 96-well plates and exposed to different individual-drug treated groups with varying concentrations (0, 10, 40, 80, 120, and 160 μM) for a period of 24 hours, whereas HEK293T cells (5×10^3 cells/ml) were seeded at the inhibitory concentration (IC) at 50% of drugs, either alone or in combination. The individual-treated groups include Group I: untreated control glioma cells; Group II: TMZ-treated glioma cells; Group III: MET-treated glioma cells; and Group IV: EGCG-treated glioma cells.
(§4) After a 24 hour treatment period, the cells were allowed to react with MTT for 4 hours in dark at 37° C. At the end of the incubation period, the dark purple formazan crystals formed were solubilized with DMSO and the absorbance was measured spectrophotometrically at 595 nm (Molecular Devices Spectra-Max M5, USA). The experiments were repeated at least three times. To determine the cell viability, the percentage of viability was calculated as follows:
(§5) % viability=[(Optical density {OD} of treated cells−OD of Blank)/(OD of control−OD of blank)]×100.
(§6) Calculation of IC50 value. The IC50 of a drug was determined using y=m(x)+c equation (where: ‘y’ & ‘x’ are the respective coordinates of y & x-axis, ‘m’ is the slope and ‘c’ is the constant) derived from the trendlines of each scattered plots MMT assay. […] The IC50 and IC25 were also calculated for the dual combinations. The IC50 for the triple combination was calculated by keeping the IC25 of the dual-combination constant, and the third drug was used in varying concentrations (0, 10, 40, 80, 120, and 160 μM) (Table 1).
(§7) Combination index of drugs. According to the Chou-Talalay method, The statistical Combination Index (CI) of the drugs was performed according to the Chou-Talay method (Ma et al, Stem Cell Reports, 2017 9(6):1948-1960) to determine whether various drug combinations were synergistic, additive, or antagonistic, as shown in Table 1. This was performed for Groups V-IX using the following formula:
(§8) Combination index (CI) of Drugs 1 & 2=(IC50 of drug-1 in combination/IC50 of drug-1 individually)+(IC50 of drug-2 in combination/IC50 of drug-2 individually).

[4] = system: U87MG glioma cells; experiment: Quantitative RT-PCR gene expression, U87MG; format: cell-based, human
Procedure: (§9) Quantitative RT-PCR analysis of antioxidant enzymes (SOD and CAT), oxidative stress marker (Nrf-2), and apoptosis markers (BCL2 and Caspase-9). Total RNA from all experimental groups was isolated using RNA Express reagent (HiMedia, India) and the respective cDNAs were synthesized using a Hi-c-DNA Synthesis Kit (HiMedia, India). Quantitative RT-PCR was carried out using a CFX 96 thermocycler (Bio-Rad, Hercules, CA) and TB Green Premix Ex Taq 1 (Takara Bio, Otsu, Japan) to detect mRNA. Independent experiments were conducted in triplicate. The cycle threshold (Ct), representing a positive PCR result, is defined as the cycle number at which a sample's fluorescence intensity crossed the threshold automatically determined by the CFX 96.
(§10) The relative changes in gene expression were calculated with the 2^−ΔΔCt method, wherein ΔΔCt=(Cttarget gene−Ctβ-actin) sample−([…]) calibrator.
(§11) The qPCR analyses were performed to measure the expression levels of genes associated with anti-Warburg effect. The total RNA was extracted from the cell lysates and brain tissues of all the experimental groups using TRIZOL reagent (Takara Bio, Shiga, Japan). Quantitative RT-PCR was carried out using a CFX96 Real Time PCR Detection System (Bio-Rad, California, USA) and TB Green Premix Ex Taq I (Takara Bio, Shiga, Japan) to detect messenger ribonucleic acid (mRNA).
(§12) Independent experiments were conducted in triplicate. The relative changes in gene expression were calculated with the 2^−ΔΔCt method, where ΔΔCt=Sample (Cttarget gene−Ctβ-actin)−Calibrator (Cttarget gene−Ctβ-actin).

[5] = system: C6 rat glioma cell line; experiment: MTT cell viability assay, C6; format: cell-based; conditions: for cell viability / anti-proliferative effect (MTT), in words / IC50: C6, 24 hours; for IC50: Rattus norvegicus, individual drug, mean ± SD, no unit in table, test concentrations given in μM, read-out: Inhibitory Concentration at 50% (IC50) C6 Cells
Procedure: as §2, §3, §4, §5, §6, §7, §8

[6] = system: C6 glioma cells; experiment: Quantitative RT-PCR gene expression, C6; format: cell-based, rat
Procedure: as §9, §10, §11, §12

[7] = system: intracellular ROS in C6 cells; experiment: ROS activity by DCF-DA, C6; format: cell-based, rat; conditions: IC50 concentrations, vs control
Procedure: as §1

[8] = as used in the triple combination for CI

| SMILES | intracellular ROS levels (DCF-DA fluorescence intensity) [1] | IC50 [3] [µM] | cell viability / anti-proliferative effect (MTT), in words [3] | mRNA expression levels of BCL2 [4] | mRNA expression levels of Caspase-9 [4] | mRNA transcript levels of Nrf-2 [4] | cell viability / anti-proliferative effect (MTT), in words [5] | IC50 [5] [µM] | mRNA expression levels of BCL2 [6] | mRNA expression levels of Caspase-9 [6] | mRNA transcript levels of Nrf-2 [6] | intracellular ROS levels (DCF-DA fluorescence intensity) [7] | other results |
| --- | --- | --- | --- | --- | --- | --- | --- | --- | --- | --- | --- | --- | --- |
| O=C(O[C@@H]1Cc2c(O)cc(O)cc2O[C@@H]1c1cc(O)c(O)c(O)c1)c1cc(O)c(O)c(O)c1 [EGCG, [(2R,3R)-5,7-dihydroxy-2-(3,4,5-trihydroxyphenyl)-3,4-dihydro-2H-chromen-3-yl] 3,4,5-trihydroxybenzoate] | increased significantly | 94 ± 1.39 | reduction in cell viability in a dose-dependent fashion | not found to be statistically significant | not found to be statistically significant | did not have any significant effect | reduction in cell viability in a dose-dependent fashion | 96 ± 1.76 | not found to be statistically significant | not found to be statistically significant | did not have any significant effect | increased significantly | apoptotic cell death (AO/EtBr) [2]: did not produce any significant apoptotic activity; apoptotic cell death (AO/EtBr) ([2]; listed as E): no apoptosis; cell viability / anti-proliferative effect (MTT), in words ([3]; listed as ECGC): did not result in significant inhibitory effects; mRNA transcripts of the antioxidant genes (SOD and CAT) [4]: significant up-regulation; cell viability / anti-proliferative effect (MTT), in words ([5]; listed as ECGC): did not result in significant inhibitory effects; mRNA transcripts of the antioxidant genes (SOD and CAT) [6]: significant up-regulation |
| CN(C)C(=N)N=C(N)N.Cl [MET, 3-(diaminomethylidene)-1,1-dimethylguanidine; hydrochloride] | did not show much effect on ROS levels | 80 ± 1.19 | reduction in cell viability in a dose-dependent fashion | not found to be statistically significant | not found to be statistically significant | did not have any significant effect | reduction in cell viability in a dose-dependent fashion | 77 ± 1.42 | not found to be statistically significant | not found to be statistically significant | did not have any significant effect | did not show much effect on ROS levels | apoptotic cell death (AO/EtBr) ([2]; hydrochloride): did not produce any significant apoptotic activity; apoptotic cell death (AO/EtBr) ([2]; listed as M, hydrochloride): no apoptosis but loss of cell membrane integrity; IC25 U87MG [3, 8]: 34.03 µM; IC25 C6 [5, 8]: 38.40 µM |
